Laboratory results published in doi:10.1101/2025.01.17.633618, “Systematic Determination of the Impact of Structural Edits on Peptide Accumulation into Mycobacteria” (bioRxiv, 2025).
Like-named read-outs stand apart in the source and are kept apart here. Bridge positions count the residues as written; N and C are the ends. Square brackets hold non-standard residues; d marks the D form. Peptide text beside a SMILES is read from it. * marks the point of attachment. Lys(N3) = [N-]=[N+]=NCCCC[C@H](N)C(=O)O; Azidoacetyl = [N-]=[N+]=NCC(=O)*; NMeF = CN[C@@H](Cc1ccccc1)C(=O)O; NMeL = CN[C@@H](CC(C)C)C(=O)O

Key:
[1] = tested on: Mycobacterium smegmatis strain mc2155 (Msm)
[2] = Serum stability assay; type: in vitro ADME; details: mouse serum, 37 °C, 1.0 mM peptide; time points 0, 15, 30, 60 min; RP-HPLC (C8), AUC normalized to internal standard Fmoc-L-phenylalanine
Procedure: was added to the system. The systems were prepared using the CHARMM scripts provided by CHARMM-GUI.4 The CHARMM36m force field5 was employed for the MD simulations. After energy minimization and 500 ps equilibration, a 100 ns production run was performed. All production MD simulations were performed for the NPT ensemble at 303.15 K and 1 atm using NAMD3. Long-range electrostatic interactions were treated using the particle mesh Ewald (PME) method 6 while Lennard-Jones (LJ) interactions were managed with a force-based switching function applied between 10 Å and 12 Å. […] Hydrogen bonds between different residues within the same peptide were analyzed using the last 50 ns of the simulation.
Serum stability assay. Time course degradation in mouse serum was evaluated for peptides Lin0, Cyc0, Nmet0 and Nmet9. […]
The samples were then centrifuged at 21,000×g for 5 min. […] 110 μL of the filtrate was then analyzed using Phenomenex Luna 5 µm C8(2) on RP-HPLC; gradient elution in H2O/CH3CN with 0.1% TFA at 1 mL/min. […]
Minimum inhibitory concentration (MIC) assay. […] MIC values were determined both visually and readings of OD (wells OD < 0.1) from a Biotek Synergy H1 microplate reader at 600 nm.

CC(C)C[C@@H]1NC(=O)[C@H](CCCCN=[N+]=[N-])NC(=O)CSC[C@@H](C(=O)N[C@@H](Cc2ccccc2)C(N)=O)NC(=O)[C@H](CCCCN)NC(=O)[C@H](CO)NC1=O [Cyc0] ({CH2CO}-[Lys(N3)]LSKCF-NH2; thioether N-5)
apparent accumulation across the mycomembrane in Msm ([1]; PAC-MAN, 50 μM compound, 2 h, 37 °C, chase 50 μM Fl-az 1 h, flow cytometry, mean ± SD n = 3): better accumulation than any other member of this macrocyclic sub-library

CC(=O)N[C@@H](CCCCN=[N+]=[N-])C(=O)N[C@@H](CC(C)C)C(=O)N[C@@H](CO)C(=O)N[C@@H](CCCCN)C(=O)N[C@@H](CO)C(=O)N[C@@H](Cc1ccccc1)C(N)=O [Lin0] (Ac-[Lys(N3)]LSKSF-NH2)
time to full degradation in serum [2]: ≤ 1 h

CC(C)C[C@H](NC(=O)[C@H](CCCCN)NC(=O)CN=[N+]=[N-])C(=O)N[C@@H](CCCCN)C(=O)N(C)[C@@H](CC(C)C)C(=O)N(C)[C@@H](Cc1ccccc1)C(N)=O [Nmet2] (Azidoacetyl-KLK[NMeL][NMeF]-NH2)
apparent accumulation across the mycomembrane in Msm [1]: increase was even more pronounced
